# Measurements from patent US20240368664A1, “LIVE YEAST BIOSENSORS AND METHODS OF USE THEREOF” (priority 2021, published 2024).
# Values joined by “and” are separate entries in the source; they are usually repeats but may differ in a detail not shown here. Equal entries are not always repeated. No end group written: not given here.
# Legend:
# ScSte2 = ScSte2 (Saccharomyces cerevisiae, UniProt D6VTK4); experiment: ScSte2 biosensor dose-response, ymTurquoise2 readout, no protease (incl. ScPep alanine scan, yTC391); assay type: cell-based; details: Hill function best-fit ± standard error
# Sequence of ScSte2 (D6VTK4 whole entry): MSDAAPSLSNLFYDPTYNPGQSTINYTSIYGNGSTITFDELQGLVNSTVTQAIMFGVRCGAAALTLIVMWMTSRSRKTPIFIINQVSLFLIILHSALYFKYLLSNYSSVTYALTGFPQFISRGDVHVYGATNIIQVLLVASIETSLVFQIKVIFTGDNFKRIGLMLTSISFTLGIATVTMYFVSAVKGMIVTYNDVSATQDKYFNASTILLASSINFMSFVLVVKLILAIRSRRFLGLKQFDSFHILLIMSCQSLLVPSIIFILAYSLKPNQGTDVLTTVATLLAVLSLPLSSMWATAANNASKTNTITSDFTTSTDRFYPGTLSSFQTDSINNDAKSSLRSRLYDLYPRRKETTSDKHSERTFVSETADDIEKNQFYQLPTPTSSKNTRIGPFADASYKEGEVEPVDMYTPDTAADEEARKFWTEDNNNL
# [1] = molecular target: ScSte2 with protease ScBar1 (Saccharomyces cerevisiae, UniProt D6VTK4); assay type: cell-based
# Sequence of ScSte2 with protease ScBar1 (D6VTK4 whole entry): as above
# [2] = molecular target: T1, Saccharomyces cerevisiae pheromone GPCR ScSte2 (Saccharomyces cerevisiae) (UniProt D6VTK4); experiment: cell-based or functional assay
# T1 sequence: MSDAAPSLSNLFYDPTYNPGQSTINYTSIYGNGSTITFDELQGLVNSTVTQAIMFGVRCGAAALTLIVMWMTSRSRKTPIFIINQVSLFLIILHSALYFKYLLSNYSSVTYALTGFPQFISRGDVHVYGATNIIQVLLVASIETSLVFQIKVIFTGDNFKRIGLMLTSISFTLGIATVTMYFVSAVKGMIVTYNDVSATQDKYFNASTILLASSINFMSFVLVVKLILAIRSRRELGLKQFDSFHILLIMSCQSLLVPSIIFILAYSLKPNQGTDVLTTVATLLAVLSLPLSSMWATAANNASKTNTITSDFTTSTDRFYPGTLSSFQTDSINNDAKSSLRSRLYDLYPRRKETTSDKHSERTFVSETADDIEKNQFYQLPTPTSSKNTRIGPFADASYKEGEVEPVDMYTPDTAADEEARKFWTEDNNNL
# [3] = Metal-binding peptide absorbance scan; assay type: physicochemical; details: for absorbance maxima of copper complexes: 1 mM copper, 1 mM peptide, 50 mM Tris/HCl, NaClO4 buffer
# CaSte2 = details: for Hill Slope: CaSte2 (yTC384), no protease, Hill function best-fit ± standard error; for EC50 compared to the native CaPep / response of CaSte2: alanine scan, system without CaBar1 (yTC384)
# [4] = system: CaSte2 with protease CaBar1; details: CaSte2 + CaBar1 (yBB02); Hill function best-fit ± standard error
# [5] = molecular target: T2, Candida albicans pheromone GPCR CaSte2 (Candida albicans); experiment: cell-based or functional assay
# T2 sequence: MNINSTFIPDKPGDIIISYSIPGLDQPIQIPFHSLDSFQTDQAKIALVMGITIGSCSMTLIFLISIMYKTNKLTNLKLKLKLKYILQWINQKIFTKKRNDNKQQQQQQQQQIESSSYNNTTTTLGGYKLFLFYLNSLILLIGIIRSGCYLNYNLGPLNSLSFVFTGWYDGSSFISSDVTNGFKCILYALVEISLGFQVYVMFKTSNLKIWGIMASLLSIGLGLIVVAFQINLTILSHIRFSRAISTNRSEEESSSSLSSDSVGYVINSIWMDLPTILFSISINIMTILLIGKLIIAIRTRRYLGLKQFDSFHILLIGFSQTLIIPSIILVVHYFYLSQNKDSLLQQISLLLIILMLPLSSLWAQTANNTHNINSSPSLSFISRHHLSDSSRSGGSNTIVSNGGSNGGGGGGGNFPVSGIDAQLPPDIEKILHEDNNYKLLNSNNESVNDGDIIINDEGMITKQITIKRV
# [6] = molecular target: T3, A. fumigatus pheromone GPCR (AfuSte2) (Aspergillus fumigatus); experiment: cell-based or functional assay
# T3 sequence: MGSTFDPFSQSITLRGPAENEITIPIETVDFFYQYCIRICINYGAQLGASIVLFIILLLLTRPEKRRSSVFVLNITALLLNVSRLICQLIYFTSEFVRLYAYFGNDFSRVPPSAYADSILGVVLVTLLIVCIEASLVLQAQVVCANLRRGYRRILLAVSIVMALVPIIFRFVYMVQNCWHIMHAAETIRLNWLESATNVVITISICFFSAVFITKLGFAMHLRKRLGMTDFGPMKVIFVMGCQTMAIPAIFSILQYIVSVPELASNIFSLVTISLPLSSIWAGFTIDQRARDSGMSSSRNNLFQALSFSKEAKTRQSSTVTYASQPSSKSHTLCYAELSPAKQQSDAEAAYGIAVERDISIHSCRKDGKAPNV
substance,measurement,setting,value
WHWLQLKPGAPMY [ScPep10A],Hill Slope,ScSte2,5.3 ± 3.7
same,Bottom,[1],8.3 ± 1.6 A.U.
same,Hill Slope,[1],1.8 ± 0.1
same,LogEC50,[1],−5.2 ± 0.1 M
same,Top,[1],420 ± 10 A.U.
S. cerevisiae pheromone peptide (ScPep),EC50 (mCherry/OD600),[2],2 nM
same,Top,[2],380 A.U. and 390 A.U.
"DAHK (UniProt P02768 25-28, looked up, fragment)",absorbance maxima of copper complexes,[3],520 nm
"Scα-Smt3 (α-factor fused to the N-terminus of full-length Smt3, 6x-His-tag at the opposite terminus) (from UniProt Q12306 2-98)",EC50 (mCherry/OD600),[2],149 nM
WHWAQLKPGQPMY [ScPep4A],Bottom,[1],−1.6 ± 2.9 A.U.
same,Hill Slope,[1],0.72 ± 0.04
same,LogEC50,[1],−5.4 ± 0.1 M
same,Top,[1],340 ± 10 A.U.
GFRLTNFGYFEAG [12A],Hill Slope,CaSte2,0.95 ± 0.04
same,EC50 compared to the native CaPep,CaSte2,more than two orders of magnitude higher EC50
same,Hill Slope,[4],1.1 ± 0.1
GFRLTNFGAFEPG [CaPep9A],Hill Slope,CaSte2,1.9 ± 0.1
same,Hill Slope,[4],1.7 ± 0.2
ScPep11A (peptide),Top,[2],410 A.U.
CaPep5A (peptide),LogEC50,[5],-5.2 log M and -4.9 log M
same,Top,[5],15 A.U. and 13 A.U.
WHWLQLKPGQAMY [ScPep11A],Hill Slope,ScSte2,4.6 ± 1.3
same,Bottom,[1],8.0 ± 2.5 A.U.
same,Hill Slope,[1],1.5 ± 0.1
same,LogEC50,[1],−5.6 ± 0.1 M
same,Top,[1],410 ± 10 A.U.
CaPep9A (peptide),Top,[5],700 A.U. and 480 A.U.
C. albicans pheromone peptide (CaPep),"EC50, lycopene readout, strains preincubated, +CaBar1",[5],4000 nM
same,"EC50, ymTurquoise2, biosensor with CaBar1 (pRPL18B)",[5],90 nM
same,"EC50, ymTurquoise2, biosensor without protease",[5],7 nM
same,LogEC50,[5],-7.2 log M
same,Top,[5],460 A.U. and 420 A.U.
ScPep2A (peptide),Top,[2],270 A.U. and 350 A.U.
KKH,absorbance maxima of copper complexes,[3],620 nm
ScPep4A (peptide),Top,[2],250 A.U. and 340 A.U.
GFRLTNFGAAEPG [9A10A],Hill Slope,CaSte2,0.99 ± 0.04
same,EC50 compared to the native CaPep,CaSte2,more than two orders of magnitude higher EC50
same,Hill Slope,[4],1.0 ± 0.1
AFRLTNFGYFEPG [CaPep1A],Hill Slope,CaSte2,3.0 ± 0.4
same,Hill Slope,[4],1.1 ± 0.22
WHWLQLKPGQPAY [ScPep12A],Bottom,[1],2.5 ± 2.9 A.U.
same,Hill Slope,[1],1.3 ± 0.1
same,LogEC50,[1],−6.0 ± 0.1 M
same,Top,[1],450 ± 10 A.U.
"Smt3-Scα (α-factor fused to the C-terminus of full-length Smt3, 6x-His-tag at the opposite terminus) (from UniProt Q12306 1-98)",EC50 (mCherry/OD600),[2],208 nM
CaPep2A13A (peptide),"EC50, ymTurquoise2, strain with the protease CaBar1",[5],70 nM
same,"EC50, ymTurquoise2, strain without the protease",[5],50 nM
same,LogEC50,[5],-7 log M and -6.5 log M
same,Top,[5],790 A.U. and 680 A.U.
WHWLALKPGQPMY [ScPep5A],Hill Slope,ScSte2,3.4 ± 0.3
same,Bottom,[1],0.52 ± 8.7 A.U.
same,Hill Slope,[1],1.2 ± 0.2
same,LogEC50,[1],−6.3 ± 0.1 M
same,Top,[1],340 ± 10 A.U.
GFRLTNFGYFEAA [12A13A],Hill Slope,CaSte2,2.8 ± 0.1
same,EC50 compared to the native CaPep,CaSte2,more than two orders of magnitude higher EC50
same,Hill Slope,[4],1.8 ± 0.1
ScPep8A (peptide),Top,[2],430 A.U. and 440 A.U.
ScPep3A (peptide),Top,[2],280 A.U. and 370 A.U.
GFRLTNFGYAEPG [CaPep10A],Hill Slope,CaSte2,2.8 ± 0.5
same,EC50 compared to the native CaPep,CaSte2,more than two orders of magnitude higher EC50
same,Hill Slope,[4],2.6 ± 0.13
ScPep12A (peptide),Top,[2],410 A.U. and 450 A.U.
GFRLANFGYFEPG [CaPep5A],Hill Slope,CaSte2,2.7 ± 0.7
same,response of CaSte2,CaSte2,practically non-responsive
CaPep4A (peptide),LogEC50,[5],-6.5 log M and -6.1 log M
same,Top,[5],460 A.U. and 410 A.U.
"Smt3-Scα-Smt3 (two Smt3 fused in tandem with an α-factor linker, N-terminus 6x-His-tag) (from UniProt Q12306 1-98; Q12306 2-98)",EC50 (mCherry/OD600),[2],1080 nM
GFRLTNAGYFEPG [7A],Hill Slope,CaSte2,1.4 ± 0.1
same,response of CaSte2,CaSte2,practically non-responsive
same,Hill Slope,[4],2.2 ± 0.4
CaPep7A (peptide),LogEC50,[5],-5.5 log M and -5.6 log M
same,Top,[5],34 A.U. and 17 A.U.
CaPep1A (peptide),Top,[5],460 A.U. and 410 A.U.
WHWLQLAPGQPMY [ScPep7A],Hill Slope,ScSte2,2.6 ± 0.4
same,Bottom,[1],5.7 ± 1.3 A.U.
same,Hill Slope,[1],1.7 ± 0.1
same,LogEC50,[1],−5.4 ± 0.1 M
same,Top,[1],380 ± 10 A.U.
WAWLQLKPGQPMY [ScPep2A],Hill Slope,ScSte2,3.7 ± 0.2
same,Bottom,[1],5.9 ± 3.0 A.U.
same,Hill Slope,[1],1.5 ± 0.1
same,LogEC50,[1],−5.0 ± 0.1 M
same,Top,[1],350 ± 10 A.U.
ScPep6A (peptide),Top,[2],310 A.U. and 390 A.U.
GFRLTAFGYFEPG [CaPep6A],Hill Slope,CaSte2,4.4 ± 0.4
same,Hill Slope,[4],1.7 ± 0.2
AHWLQLKPGQPMY [ScPep1A],Hill Slope,ScSte2,3.4 ± 0.8
same,Bottom,[1],−3.1 ± 5.8 A.U.
same,Hill Slope,[1],0.76 ± 0.06
same,LogEC50,[1],−5.9 ± 0.1 M
same,Top,[1],350 ± 10 A.U.
ScPep9A (peptide),Top,[2],370 A.U. and 440 A.U.
ScPep1A (peptide),Top,[2],320 A.U. and 350 A.U.
CaPep8A (peptide),Top,[5],640 A.U. and 460 A.U.
GHK,absorbance maxima of copper complexes,[3],620 nm
same,absorbance peaks of nickel complexes,[3]; nickel complexes,did not show absorbance peaks
WHALQLKPGQPMY [ScPep3A],Hill Slope,ScSte2,2.5 ± 0.1
same,Bottom,[1],6.4 ± 2.6 A.U.
same,Hill Slope,[1],0.74 ± 0.05
same,LogEC50,[1],−4.6 ± 0.1 M
same,Top,[1],370 ± 20 A.U.
WHWLQLKPGQPMA [ScPep13A],Hill Slope,ScSte2,8.2 ± 3.1
same,Bottom,[1],4.6 ± 2.5 A.U.
same,Hill Slope,[1],1.2 ± 0.1
same,LogEC50,[1],−5.1 ± 0.1 M
same,Top,[1],490 ± 10 A.U.
ScPep5A (peptide),Top,[2],380 A.U. and 340 A.U.
WHWLQLKAGQPMY [ScPep8A],Hill Slope,ScSte2,2.7 ± 0.1
same,Bottom,[1],4.6 ± 2.6 A.U.
same,Hill Slope,[1],1.1 ± 0.1
same,LogEC50,[1],−5.6 ± 0.1 M
same,Top,[1],440 ± 10 A.U.
GFRLTNFGYFAPG [CaPep11A],Hill Slope,[4],1.5 ± 0.2
CaPep6A (peptide),LogEC50,[5],-6.2 log M and -5.9 log M
same,Top,[5],570 A.U. and 450 A.U.
WHWLQLKPAQPMY [ScPep9A],Hill Slope,ScSte2,5.0 ± 1.3
same,Bottom,[1],3.7 ± 2.1 A.U.
same,Hill Slope,[1],1.2 ± 0.1
same,LogEC50,[1],−4.8 ± 0.2 M
same,Top,[1],440 ± 10 A.U.
ScPep10A (peptide),Top,[2],380 A.U. and 420 A.U.
WHWLQAKPGQPMY [ScPep6A],Hill Slope,ScSte2,5.6 ± 0.7
same,Bottom,[1],0.38 ± 5.71 A.U.
same,Hill Slope,[1],0.99 ± 0.10
same,LogEC50,[1],−5.5 ± 0.1 M
same,Top,[1],390 ± 10 A.U.
GFRLTNFAYFEPG [CaPep8A],Hill Slope,CaSte2,1.3 ± 0.3
same,Hill Slope,[4],1.0 ± 0.1
GFRATNFGYFEPG [CaPep4A],Hill Slope,CaSte2,1.3 ± 0.1
same,Hill Slope,[4],2.4 ± 0.4
ScPep7A (peptide),Top,[2],400 A.U. and 380 A.U.
GFALTNFGYFEPG [CaPep3A],Hill Slope,CaSte2,2.0 ± 0.1
same,Hill Slope,[4],0.74 ± 0.08
synthetic A. fumigatus pheromone peptide (AfuPep),"EC50, GFP of the sender strain",[6],4 nM
same,"EC50, mCherry reporter in yeast",[6],100 nM
same,"EC50, mCherry, fine-tuned optimized strain",[6],40 nM
same,"EC50, mCherry, strain with natural signaling pathway",[6],10 nM
same,"LoD, lycopene readout, yTC590",[6],50 nM
same,"activation fold change, fine-tuned optimized strain",[6],2900 fold
same,"activation fold change, strain with natural signaling pathway",[6],19 fold
same,fold change of fluorescence readout,[6],4000 fold
same,"limit of detection (LoD), lycopene readout, yTC527",[6],30 nM
same,"maximal activation, mCherry, fine-tuned optimized strain",[6],2900 A.U.
same,"maximal activation, mCherry, strain with natural signaling pathway (yMJ194)",[6],450 A.U.
ScPep13A (peptide),Top,[2],360 A.U. and 490 A.U.
CaPep3A (peptide),Top,[5],460 A.U.
